{
  "source": "paper PMC3528340",
  "about": "(Journal of the American Chemical Society, 2012)",
  "key": {"[1]": {"molecular_target": "T1, EcLTA (E. coli L-Thr aldolase, EC 4.1.24) (Escherichia coli, UniProt P75823)", "T1 sequence (P75823 1-333)": "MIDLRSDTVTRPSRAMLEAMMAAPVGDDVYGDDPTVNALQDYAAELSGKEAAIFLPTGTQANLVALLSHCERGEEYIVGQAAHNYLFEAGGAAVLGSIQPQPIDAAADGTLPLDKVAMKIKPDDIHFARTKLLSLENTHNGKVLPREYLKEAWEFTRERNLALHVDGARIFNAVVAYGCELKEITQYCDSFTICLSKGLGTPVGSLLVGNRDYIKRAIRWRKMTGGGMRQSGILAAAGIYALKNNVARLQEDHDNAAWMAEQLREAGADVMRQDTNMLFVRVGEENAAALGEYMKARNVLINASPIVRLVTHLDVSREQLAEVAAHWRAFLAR", "experiment": "aldehyde dehydrogenase-coupled retro-aldol assay, A340", "type": "biochemical", "settings": "L-Thr only, no aldehyde acceptor"}, "[2]": {"molecular_target": "T2, EcGlyA (E. coli SHMT) (Escherichia coli, UniProt P0A825)", "T2 sequence (P0A825 1-417)": "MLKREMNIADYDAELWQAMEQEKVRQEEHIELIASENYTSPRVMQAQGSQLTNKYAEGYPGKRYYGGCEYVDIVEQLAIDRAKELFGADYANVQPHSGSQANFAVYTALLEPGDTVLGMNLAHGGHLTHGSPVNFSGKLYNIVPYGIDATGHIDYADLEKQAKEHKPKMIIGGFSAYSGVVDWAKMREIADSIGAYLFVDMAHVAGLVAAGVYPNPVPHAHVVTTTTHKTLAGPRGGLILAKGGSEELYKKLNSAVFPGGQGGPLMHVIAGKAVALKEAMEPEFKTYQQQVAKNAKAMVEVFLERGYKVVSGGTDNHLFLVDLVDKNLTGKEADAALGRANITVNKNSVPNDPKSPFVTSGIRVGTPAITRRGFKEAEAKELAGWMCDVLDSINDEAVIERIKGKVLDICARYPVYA", "experiment": "aldehyde dehydrogenase-coupled retro-aldol assay, A340", "type": "biochemical", "settings": "L-Thr only, no aldehyde acceptor"}},
  "data": [
    {"smiles": "C[C@@H](O)[C@H](N)C(=O)O", "note": "[L-Thr]", "values": [
      {"measurement": "specific activity", "setting": "[1]", "result": "EcLTA, and EcGlyA were shown to catalyze a retro-aldol-type reaction in the presence of only L-Thr"},
      {"measurement": "specific activity", "setting": "[2]", "result": "EcLTA, and EcGlyA were shown to catalyze a retro-aldol-type reaction in the presence of only L-Thr"}
    ]}
  ]
}
